Values joined by “and” are separate entries in the source; they are usually repeats but may differ in a detail not shown here. Identical values can stand only once. Like-named read-outs stand apart in the source and are kept apart here.
Key:
[1] = system: sheep red blood cells; assay: Haemolysis; format: cell-based; details: 1 h, vs Triton X-100 100% lysis
Experimental: Samples were treated at 37 °C with shaking for 1 h and then centrifuged. Supernatants were collected and absorbances were measured at 405 nm in a Tecan InfiniteM200 Pro microplate reader.

[2] = system: P. aeruginosa clinical isolates; format: cell-based, Pseudomonas aeruginosa; details: for clinical isolates resistant: 77 P. aeruginosa clinical isolates (55 CDC/FDA, 22 blood), 50 μg ml^−1, growth inhibition >80% = sensitive; for % Growth: 50ug/mL
Experimental: Percent growth was calculated by dividing the OD600 of fluorofolin antibiotic-treated wells by that of vehicle-only wells.

[3] = system: PA14 nfxB (T39P) and mexS (L46F) mutants; assay: Pyocyanin production; format: cell-based, Pseudomonas aeruginosa; details: for Pyocyanin production (Panel E): single replicates
Experimental: […] Cell-free supernatants were […] by centrifugation, and 100 μl were added to a 96-well plate in duplicate. The integrated absorbance spectrum from 306 to 326 nm was taken in a Tecan InfiniteM200 Pro plate reader to determine pyocyanin levels in each sample. A ΔpqsA sample was used to subtract out any background values, and pyocyanin levels were normalized by the ratio of OD600 between wildtype PA14 and the mutants to account for any slight differences in growth.

[4] = system: P. aeruginosa PA14; assay: Colony-forming units counting after antibiotic treatment; format: cell-based, Pseudomonas aeruginosa; details: 2× MIC (fluorofolin 6.2, TMP 250, polymixin B 4 μg ml^−1)
Experimental: P. aeruginosa PA14 overnight cultures were diluted 1:100 and grown to exponential phase (OD600 = 0.4–0.6). Cultures were diluted 1:10 and treated with antibiotic. At each time point, 150 μl of culture was removed, serial diluted 1:10 six times and plated onto LB agar plates. Plates were grown overnight at 37 °C, after which visible colonies were counted. C.f.u.s ml^−1 are reported from dilutions in which ~10–100 single colonies were visible.

## CC(C)c1ccc(Cn2ccc3c4c(N)nc(NC5CC5)nc4ccc32)cc1 [SCH-79797]
[1]; 0.78125 ug/mL
  % Hemolysis, Mean: 0.2789%
[1]; 1.5625 ug/mL
  % Hemolysis, Mean: -0.7082%
[1]; 3.125 ug/mL
  % Hemolysis, Mean: -0.9423%
[1]; 6.25 ug/mL
  % Hemolysis, Mean: 0.9543%
[1]; 12.5 ug/mL
  % Hemolysis, Mean: 20.9447%
[1]; 25 ug/mL
  % Hemolysis, Mean: 53.6334%
[1]; 50 ug/mL
  % Hemolysis, Mean: 64.7041%

## gentamycin
[2]
  clinical isolates resistant: 35.0%
[2]; Isolate# 1
  % Growth: 0.6518%
[2]; Isolate# 2
  % Growth: 105.422%
[2]; Isolate# 3
  % Growth: 61.3464%
[2]; Isolate# 4
  % Growth: 179.172%
[2]; Isolate# 5
  % Growth: 0%
[2]; Isolate# 6
  % Growth: 89.7261%
[2]; Isolate# 7
  % Growth: 110.349%
[2]; Isolate# 8
  % Growth: 97.3307%
[2]; Isolate# 9
  % Growth: 0%
[2]; Isolate# 10
  % Growth: 0%
[2]; Isolate# 11
  % Growth: 111.492%
[2]; Isolate# 12
  % Growth: 30.6669%
[2]; Isolate# 13
  % Growth: 9.611%
[2]; Isolate# 14
  % Growth: 99.0331%
[2]; Isolate# 15
  % Growth: 99.6274%
[2]; Isolate# 16
  % Growth: 86.3373%
[2]; Isolate# 17
  % Growth: 0.5763%
[2]; Isolate# 18
  % Growth: 84.8111%
[2]; Isolate# 19
  % Growth: 0%
[2]; Isolate# 20
  % Growth: 92.394%
[2]; Isolate# 21
  % Growth: 106.701%
[2]; Isolate# 22
  % Growth: 98.4485%
[2]; Isolate# 23
  % Growth: 0%
[2]; Isolate# 24
  % Growth: 0%
[2]; Isolate# 25
  % Growth: 0%
[2]; Isolate# 26
  % Growth: 111.123%
[2]; Isolate# 27
  % Growth: 88.2969%
[2]; Isolate# 28
  % Growth: 0%
[2]; Isolate# 29
  % Growth: 0%
[2]; Isolate# 30
  % Growth: 1.897%
[2]; Isolate# 31
  % Growth: 0%
[2]; Isolate# 32
  % Growth: 104.806%
[2]; Isolate# 33
  % Growth: 0%
[2]; Isolate# 34
  % Growth: 0%
[2]; Isolate# 35
  % Growth: 0%
[2]; Isolate# 36
  % Growth: 0%
[2]; Isolate# 37
  % Growth: 95.3633%
[2]; Isolate# 38
  % Growth: 100.4%
[2]; Isolate# 39
  % Growth: 0%
[2]; Isolate# 40
  % Growth: 0%
[2]; Isolate# 41
  % Growth: 0%
[2]; Isolate# 42
  % Growth: 0%
[2]; Isolate# 43
  % Growth: 82.8316%
[2]; Isolate# 44
  % Growth: 5.792%
[2]; Isolate# 45
  % Growth: 88.2389%
[2]; Isolate# 46
  % Growth: 13.0256%
[2]; Isolate# 47
  % Growth: 70.0551%
[2]; Isolate# 48
  % Growth: 0%
[2]; Isolate# 49
  % Growth: 0%
[2]; Isolate# 50
  % Growth: 2.976%
[2]; Isolate# 51
  % Growth: 0%
[2]; Isolate# 52
  % Growth: 0%
[2]; Isolate# 53
  % Growth: 0%
[2]; Isolate# 54
  % Growth: 0.0248%
[2]; Isolate# 55
  % Growth: 142.857%
[2]; Isolate# 56
  % Growth: 0%
[2]; Isolate# 57
  % Growth: 61.626%
[2]; Isolate# 58
  % Growth: 0.9683%
[2]; Isolate# 59
  % Growth: 34.5167%
[2]; Isolate# 60
  % Growth: 0%
[2]; Isolate# 61
  % Growth: 0%
[2]; Isolate# 62
  % Growth: 0%
[2]; Isolate# 63
  % Growth: 0%
[2]; Isolate# 64
  % Growth: 0%
[2]; Isolate# 65
  % Growth: 0%
[2]; Isolate# 66
  % Growth: 0%
[2]; Isolate# 67
  % Growth: 0%
[2]; Isolate# 68
  % Growth: 0%
[2]; Isolate# 69
  % Growth: 0.2922%
[2]; Isolate# 70
  % Growth: 0%
[2]; Isolate# 71
  % Growth: 0%
[2]; Isolate# 72
  % Growth: 106.187%
[2]; Isolate# 73
  % Growth: 0%
[2]; Isolate# 74
  % Growth: 0%
[2]; Isolate# 75
  % Growth: 0%
[2]; Isolate# 76
  % Growth: 0.1836%
[2]; Isolate# 77
  % Growth: 1.314%

## C[C@@H](O)[C@H]1C(=O)N2C(C(=O)O)=C(S[C@@H]3CN[C@H](C(=O)N(C)C)C3)[C@H](C)[C@H]12 [meropenem]
[2]
  clinical isolates resistant: 74.0%
[2]; Isolate# 1
  % Growth: 113.227%
[2]; Isolate# 2
  % Growth: 104.859%
[2]; Isolate# 3
  % Growth: 93.4328%
[2]; Isolate# 4
  % Growth: 45.5006%
[2]; Isolate# 5
  % Growth: 93.4656%
[2]; Isolate# 6
  % Growth: 77.5947%
[2]; Isolate# 7
  % Growth: 101.901%
[2]; Isolate# 8
  % Growth: 45.9194%
[2]; Isolate# 9
  % Growth: 53.5808%
[2]; Isolate# 10
  % Growth: 5.367%
[2]; Isolate# 11
  % Growth: 99.5105%
[2]; Isolate# 12
  % Growth: 98.7175%
[2]; Isolate# 13
  % Growth: 37.9571%
[2]; Isolate# 14
  % Growth: 104.583%
[2]; Isolate# 15
  % Growth: 111.823%
[2]; Isolate# 16
  % Growth: 82.8716%
[2]; Isolate# 17
  % Growth: 101.338%
[2]; Isolate# 18
  % Growth: 69.0131%
[2]; Isolate# 19
  % Growth: 139.474%
[2]; Isolate# 20
  % Growth: 102.365%
[2]; Isolate# 21
  % Growth: 105.977%
[2]; Isolate# 22
  % Growth: 100%
[2]; Isolate# 23
  % Growth: 99.084%
[2]; Isolate# 24
  % Growth: 101.66%
[2]; Isolate# 25
  % Growth: 0.3832%
[2]; Isolate# 26
  % Growth: 108.084%
[2]; Isolate# 27
  % Growth: 90.2732%
[2]; Isolate# 28
  % Growth: 50.4713%
[2]; Isolate# 29
  % Growth: 81.8075%
[2]; Isolate# 30
  % Growth: 25.5041%
[2]; Isolate# 31
  % Growth: 2.581%
[2]; Isolate# 32
  % Growth: 49.1417%
[2]; Isolate# 33
  % Growth: 0%
[2]; Isolate# 34
  % Growth: 7.796%
[2]; Isolate# 35
  % Growth: 0.5421%
[2]; Isolate# 36
  % Growth: 34.6796%
[2]; Isolate# 37
  % Growth: 97.561%
[2]; Isolate# 38
  % Growth: 159.815%
[2]; Isolate# 39
  % Growth: 38.9532%
[2]; Isolate# 40
  % Growth: 99.0807%
[2]; Isolate# 41
  % Growth: 94.6179%
[2]; Isolate# 42
  % Growth: 57.1194%
[2]; Isolate# 43
  % Growth: 47.1218%
[2]; Isolate# 44
  % Growth: 108.201%
[2]; Isolate# 45
  % Growth: 95.4718%
[2]; Isolate# 46
  % Growth: 98.3594%
[2]; Isolate# 47
  % Growth: 114.345%
[2]; Isolate# 48
  % Growth: 88.9096%
[2]; Isolate# 49
  % Growth: 96.2021%
[2]; Isolate# 50
  % Growth: 122.491%
[2]; Isolate# 51
  % Growth: 46.991%
[2]; Isolate# 52
  % Growth: 2.293%
[2]; Isolate# 53
  % Growth: 3.543%
[2]; Isolate# 54
  % Growth: 4.738%
[2]; Isolate# 55
  % Growth: 0%
[2]; Isolate# 56
  % Growth: 121.285%
[2]; Isolate# 57
  % Growth: 61.1775%
[2]; Isolate# 58
  % Growth: 74.7799%
[2]; Isolate# 59
  % Growth: 114.529%
[2]; Isolate# 60
  % Growth: 144.06%
[2]; Isolate# 61
  % Growth: 63.8412%
[2]; Isolate# 62
  % Growth: 95.6203%
[2]; Isolate# 63
  % Growth: 0%
[2]; Isolate# 64
  % Growth: 0.5899%
[2]; Isolate# 65
  % Growth: 0.9518%
[2]; Isolate# 66
  % Growth: 19.8024%
[2]; Isolate# 67
  % Growth: 10.308%
[2]; Isolate# 68
  % Growth: 0.6936%
[2]; Isolate# 69
  % Growth: 5.952%
[2]; Isolate# 70
  % Growth: 25.3374%
[2]; Isolate# 71
  % Growth: 98.2336%
[2]; Isolate# 72
  % Growth: 90.6634%
[2]; Isolate# 73
  % Growth: 0%
[2]; Isolate# 74
  % Growth: 128.066%
[2]; Isolate# 75
  % Growth: 2.406%
[2]; Isolate# 76
  % Growth: 11.0259%
[2]; Isolate# 77
  % Growth: 28.4071%

## CCCCCCCc1[nH]c2ccccc2c(=O)c1O [PQS, Pseudomonas quinolone signal]
[3]; PA14, + 1 uM PQS
  Pyocyanin production (Panel E): 15.8282 and 16.194 and 15.1165
[3]; PQS 1 μM added at inoculation
  pyocyanin production of nfxB and mexS mutants: partially rescued
[3]; PqsA KO, + 1 uM PQS
  Pyocyanin production (Panel E): 17.5069 and 16.392 and 16.1857
[3]; mexS Mutant, + 1 uM PQS
  Pyocyanin production (Panel E): 10.0838 and 9.877 and 13.1798
[3]; nfxB mutant, + 1 uM PQS
  Pyocyanin production (Panel E): 8.219 and 6.016 and 7.118

## polymixin B
[4]; Time 0 h
  PA14 CFU/mL, Mean: 197000 CFU/mL
[4]; Time 1 h
  PA14 CFU/mL, Mean: 81.6667 CFU/mL
[4]; Time 2 h
  PA14 CFU/mL, Mean: 17.7778 CFU/mL
[4]; Time 4 h
  PA14 CFU/mL, Mean: 20 CFU/mL

— article PMC11087268, “A folate inhibitor exploits metabolic differences in Pseudomonas aeruginosa for narrow-spectrum targeting” (Nature Microbiology, 2024)
